Measured values: article PMC3646888 (PLoS ONE, 2013)
“Also recorded” adds a separate entry of the source.

Assays:
Format in all cases: in vitro ADME
CYP1A2h = biological target: T1, CYP1A2h (Homo sapiens, UniProt P05177); assay: Fluorescence-based CYP assay, recombinant CYP1A2h, substrate CEC
T1 sequence (P05177 1-516): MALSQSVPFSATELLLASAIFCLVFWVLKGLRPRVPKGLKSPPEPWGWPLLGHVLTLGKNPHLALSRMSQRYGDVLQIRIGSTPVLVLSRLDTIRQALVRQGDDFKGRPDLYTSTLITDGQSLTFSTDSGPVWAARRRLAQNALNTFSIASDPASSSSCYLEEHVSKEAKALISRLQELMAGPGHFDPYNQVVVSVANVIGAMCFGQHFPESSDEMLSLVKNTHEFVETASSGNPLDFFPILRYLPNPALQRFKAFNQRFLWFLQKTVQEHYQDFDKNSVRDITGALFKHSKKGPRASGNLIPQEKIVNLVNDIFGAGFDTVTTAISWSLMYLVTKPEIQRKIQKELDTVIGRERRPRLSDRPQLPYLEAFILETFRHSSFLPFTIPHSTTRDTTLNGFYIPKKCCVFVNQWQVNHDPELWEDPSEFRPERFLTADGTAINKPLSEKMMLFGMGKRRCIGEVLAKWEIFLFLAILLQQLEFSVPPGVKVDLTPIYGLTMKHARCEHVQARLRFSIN
Experimental: (§1) These assays were performed by methods similar to those described by VanAlstine and Hough, Stresser et al., Wulff et al., Henderson et al., and Crespi et al., with minor modifications. All incubations were performed in a final volume of 200 µL of 50 mM potassium phosphate buffer at pH 7.4 containing 1% acetonitrile. CYP inhibitor studies were performed according to the parameters of Table 1. Substrate concentrations were chosen to be near known Km values. As described in the references cited, two different NADPH regenerating systems were used depending on the substrates used (Table 1). […] Samples were pre-incubated at 37°C for the designated times, and the reactions were initiated with the addition of a substrate and enzyme mixtures (Table 1). […] For the assays utilizing the “high” regenerating system, enzyme reactions were terminated at the designated time by the addition of 75 µL of 2N NaOH, followed by a 2 h post-incubation at 37°C. Product formation was then measured at the designated wavelengths (Table 1). For the “low” regenerating system assays, blanks and standards were prepared in 0.1 mL buffer without the regenerating system. For the “high” regenerating system assays, blanks and standards containing 0.1 mL of buffer received 75 µL of 2N NaOH following pre-incubation.

CYP3A4 [1] = biological target: T2, CYP3A4 (Homo sapiens, UniProt P08684); assay: Fluorescence-based CYP3A4 assay with DBF as substrate
T2 sequence (P08684 whole entry): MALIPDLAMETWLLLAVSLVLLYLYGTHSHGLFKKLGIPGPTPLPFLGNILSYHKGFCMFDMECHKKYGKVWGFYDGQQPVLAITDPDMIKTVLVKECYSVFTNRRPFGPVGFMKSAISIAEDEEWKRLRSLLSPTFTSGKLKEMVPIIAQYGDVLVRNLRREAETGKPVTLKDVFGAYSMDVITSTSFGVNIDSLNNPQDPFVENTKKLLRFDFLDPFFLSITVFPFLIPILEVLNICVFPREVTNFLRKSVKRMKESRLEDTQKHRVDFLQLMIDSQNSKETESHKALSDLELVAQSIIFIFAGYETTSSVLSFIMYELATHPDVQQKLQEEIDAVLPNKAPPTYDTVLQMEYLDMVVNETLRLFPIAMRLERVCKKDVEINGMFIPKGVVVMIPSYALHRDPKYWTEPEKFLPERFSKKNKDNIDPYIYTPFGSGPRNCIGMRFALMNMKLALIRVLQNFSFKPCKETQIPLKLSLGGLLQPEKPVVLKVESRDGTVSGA
Experimental: as §1

CYP3A4 [2] = biological target: T2, CYP3A4; assay: CYP3A4 assay with LVS as substrate (LC-MS/MS); details: for IC50 at 20 min: human; for IC50: substrate LVS 10 µM
Experimental: CYP3A4-containing Supersomes (2 pmol) were incubated with LVS (10 µM) in a 200 µl reaction mixture containing 0.1 M potassium phosphate buffer, pH 7.4, 1.0 mM NADPH, and 3 mM MgCl2 for 20 min at 37°C. The reaction was initiated by the addition of NADPH, and terminated by the addition of 400 µL of acetonitrile to the reaction mixture. Samples were extracted and analyzed for the two major LVS metabolites 6′β-hydroxy LVS and 6′-exomethylene LVS by LC-MS-MS exactly as described.

Clc1ccccc1C(c1ccccc1)(c1ccccc1)n1cccn1 [TRAM-34, 1-[(2-chlorophenyl)diphenylmethyl]-1H-pyrazole]
IC50 (CYP1A2h): > 80000 nM | Inhibition of CYP1A2h (in words) (CYP1A2h; up to 80 µM): little to no inhibition; also recorded: no inhibitory effects | IC50 (CYP3A4 [1]): 3600 nM | IC50 at 20 min (CYP3A4 [2]; pH 7.4, IC50, formation of 6′-exomethylene LVS by CYP3A4, substrate LVS 10 µM): 640 nM | IC50 at 20 min (CYP3A4 [2]; pH 7.4, IC50, formation of 6′β-hydroxy LVS by CYP3A4, substrate LVS 10 µM): 920 nM | IC50 (CYP3A4 [2]; read-out: IC50, formation of 6′-exomethylene LVS by CYP3A4): ~1000 nM | IC50 (CYP3A4 [2]; read-out: IC50, formation of 6′β-hydroxy LVS by CYP3A4): ~1000 nM
